Results as given in PubChem BioAssay AID248 (DTP/NCI, 2004).
“And” between values parts separate entries of the source, which are not always exact repeats. Equal values may be shown once. Inconclusive results and toxic doses are left out. Rule as the data show it: active = T/C of 150% or more; inactive = T/C below 125%.

Tested on: L1210 leukemia ip in BDF1 mice, survival T/C
Test: NCI In Vivo Anticancer Drug Screen. Data for tumor model L1210 Leukemia (intraperitoneal) in B6D2F1 (BDF1) mice
Details: endpoint: mean survival time, higher = longer survival
Summary of the method: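 Each compound was tested against a transplantable tumor grown in mice. The endpoint was survival, with treated animals benchmarked against vehicle controls as a simple ratio.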

[1] = dose: 100.0 mg/kg/injection, schedule: Q04DX003 (ip), vehicle: saline
[2] = dose: 200.0 mg/kg/injection, schedule: Q04DX003 (ip), vehicle: saline
[3] = dose: 25.0 mg/kg/injection, schedule: Q01DX009 (ip), vehicle: water
[4] = dose: 50.0 mg/kg/injection, schedule: Q01DX009 (ip), vehicle: water
[5] = dose: 100.0 mg/kg/injection, schedule: Q01DX009 (ip), vehicle: water
[6] = dose: 100.0 mg/kg/injection, schedule: Q04DX003 (ip), vehicle: Klucel (hydroxypropylcellulose) (HPC)
[7] = dose: 200.0 mg/kg/injection, schedule: Q04DX003 (ip), vehicle: Klucel (hydroxypropylcellulose) (HPC)
[8] = dose: 400.0 mg/kg/injection, schedule: Q04DX003 (ip), vehicle: Klucel (hydroxypropylcellulose) (HPC)

Measured: T/C

CN(C)N=C1CCC(=NN(C)C)CC1
inactive: dose: 12.5 mg/kg/injection, schedule: Q04DX003 (ip), vehicle: saline 100 % of control | dose: 25.0 mg/kg/injection, schedule: Q04DX003 (ip), vehicle: saline 100 % of control | dose: 50.0 mg/kg/injection, schedule: Q04DX003 (ip), vehicle: saline 94 % of control | [1] 100 % of control | [2] 99 % of control

Cc1ccn(C)c(=O)c1
inactive: [1] 105 % of control | [2] 103 % of control | dose: 400.0 mg/kg/injection, schedule: Q04DX003 (ip), vehicle: saline 102 % of control

CCOC(=O)C1CSCC1=O (stereo not given)
inactive: [3] 97 % of control | [4] 90 % of control | [5] 104 % of control

O=CN1CCCC1C(=O)O (stereo not given)
inactive: [3] 98 % of control | [4] 101 % of control | [5] 95 % of control | dose: 200.0 mg/kg/injection, schedule: Q01DX009 (ip), vehicle: water 101 % of control

COc1ccc(/C=N/n2c3ccccc3c3ccccc32)cc1OCCCN(C)C
inactive: dose: 3.12 mg/kg/injection, schedule: Q01DX009 (ip), vehicle: saline 98 % of control | dose: 6.25 mg/kg/injection, schedule: Q01DX009 (ip), vehicle: saline 102 % of control | dose: 25.0 mg/kg/injection, schedule: Q04DX003 (ip), vehicle: alcohol 93 % of control | dose: 50.0 mg/kg/injection, schedule: Q04DX003 (ip), vehicle: alcohol 93 % of control

Brc1nnnn1-c1ccccc1
inactive: dose: 100.0 mg/kg/injection, schedule: Q01DX009 (ip), vehicle: Klucel (hydroxypropylcellulose) (HPC) 99 % of control | [6] 97 % of control | dose: 200.0 mg/kg/injection, schedule: Q01DX009 (ip), vehicle: Klucel (hydroxypropylcellulose) (HPC) 98 % of control | [7] 108 % of control | dose: 400.0 mg/kg/injection, schedule: Q01DX009 (ip), vehicle: Klucel (hydroxypropylcellulose) (HPC) 96 % of control | [8] 94 % of control

Cc1nc(NCc2ccccc2)c2cc[nH]c2n1
inactive: dose: 1.56 mg/kg/injection, schedule: Q01DX009 (ip), vehicle: Klucel (hydroxypropylcellulose) (HPC) 104 % of control and 111 % of control | dose: 3.12 mg/kg/injection, schedule: Q01DX009 (ip), vehicle: Klucel (hydroxypropylcellulose) (HPC) 96 % of control and 105 % of control | dose: 3.12 mg/kg/injection, schedule: Q04DX003 (ip), vehicle: Klucel (hydroxypropylcellulose) (HPC) 106 % of control | dose: 5.0 mg/kg/injection, schedule: Q01DX001 (ip), vehicle: saline 104 % of control | dose: 6.25 mg/kg/injection, schedule: Q01DX009 (ip), vehicle: Klucel (hydroxypropylcellulose) (HPC) 103 % of control and 110 % of control | dose: 6.25 mg/kg/injection, schedule: Q04DX003 (ip), vehicle: Klucel (hydroxypropylcellulose) (HPC) 103 % of control | dose: 10.0 mg/kg/injection, schedule: Q01DX001 (ip), vehicle: saline 104 % of control | dose: 12.5 mg/kg/injection, schedule: Q01DX009 (ip), vehicle: Klucel (hydroxypropylcellulose) (HPC) 100 % of control and 105 % of control | dose: 12.5 mg/kg/injection, schedule: Q04DX003 (ip), vehicle: Klucel (hydroxypropylcellulose) (HPC) 111 % of control | dose: 20.0 mg/kg/injection, schedule: Q01DX001 (ip), vehicle: saline 116 % of control | dose: 25.0 mg/kg/injection, schedule: Q01DX009 (ip), vehicle: Klucel (hydroxypropylcellulose) (HPC) 93 % of control and 97 % of control | dose: 25.0 mg/kg/injection, schedule: Q04DX003 (ip), vehicle: Klucel (hydroxypropylcellulose) (HPC) 103 % of control | dose: 40.0 mg/kg/injection, schedule: Q01DX001 (ip), vehicle: saline 104 % of control | dose: 80.0 mg/kg/injection, schedule: Q01DX001 (ip), vehicle: saline 110 % of control

Cc1ccc(C(=O)OCc2ccccc2CN2CCOCC2)cc1
inactive: dose: 100.0 mg/kg/injection, schedule: Q04DX002 (ip), vehicle: Klucel (hydroxypropylcellulose) (HPC) 100 % of control | dose: 200.0 mg/kg/injection, schedule: Q04DX002 (ip), vehicle: Klucel (hydroxypropylcellulose) (HPC) 103 % of control | dose: 400.0 mg/kg/injection, schedule: Q04DX002 (ip), vehicle: Klucel (hydroxypropylcellulose) (HPC) 92 % of control

Cc1ccc(S(=O)(=O)N(C)c2cc(Cl)c(C(=O)O)c(Cl)c2)cc1
inactive: [6] 96 % of control | [7] 105 % of control | [8] 97 % of control

C=C(C)C1CC=C(/C=N/O)CC1 (stereo not given)
inactive: dose: 100.0 mg/kg/injection, schedule: Q01DX001 (ip), vehicle: saline 104 % of control | dose: 100.0 mg/kg/injection, schedule: Q01DX009 (ip), vehicle: saline sonified 104 % of control | [6] 96 % of control | dose: 200.0 mg/kg/injection, schedule: Q01DX001 (ip), vehicle: saline 101 % of control | dose: 200.0 mg/kg/injection, schedule: Q01DX009 (ip), vehicle: saline sonified 97 % of control | [7] 98 % of control | dose: 400.0 mg/kg/injection, schedule: Q01DX001 (ip), vehicle: saline 95 % of control | dose: 400.0 mg/kg/injection, schedule: Q01DX009 (ip), vehicle: saline sonified 97 % of control | [8] 98 % of control

OC1CC2CCC(C2)C1(O)c1ccccc1 (stereo not given)
inactive: [6] 93 % of control | [7] 117 % of control | [8] 93 % of control

CCC(C)(c1ccc(O)cc1)c1ccc(O)cc1
inactive: dose: 100.0 mg/kg/injection, schedule: Q04DX002 (ip), vehicle: saline 103 % of control | dose: 200.0 mg/kg/injection, schedule: Q04DX002 (ip), vehicle: saline 97 % of control | dose: 400.0 mg/kg/injection, schedule: Q04DX002 (ip), vehicle: saline 103 % of control
